This assay deals with T1, Pdia4 (Mus musculus, UniProt P08003).
T1 construct: recombinant Pdia4; Flag-Pdia4 plasmid used in Min6 cells
T1 sequence (P08003 21-638): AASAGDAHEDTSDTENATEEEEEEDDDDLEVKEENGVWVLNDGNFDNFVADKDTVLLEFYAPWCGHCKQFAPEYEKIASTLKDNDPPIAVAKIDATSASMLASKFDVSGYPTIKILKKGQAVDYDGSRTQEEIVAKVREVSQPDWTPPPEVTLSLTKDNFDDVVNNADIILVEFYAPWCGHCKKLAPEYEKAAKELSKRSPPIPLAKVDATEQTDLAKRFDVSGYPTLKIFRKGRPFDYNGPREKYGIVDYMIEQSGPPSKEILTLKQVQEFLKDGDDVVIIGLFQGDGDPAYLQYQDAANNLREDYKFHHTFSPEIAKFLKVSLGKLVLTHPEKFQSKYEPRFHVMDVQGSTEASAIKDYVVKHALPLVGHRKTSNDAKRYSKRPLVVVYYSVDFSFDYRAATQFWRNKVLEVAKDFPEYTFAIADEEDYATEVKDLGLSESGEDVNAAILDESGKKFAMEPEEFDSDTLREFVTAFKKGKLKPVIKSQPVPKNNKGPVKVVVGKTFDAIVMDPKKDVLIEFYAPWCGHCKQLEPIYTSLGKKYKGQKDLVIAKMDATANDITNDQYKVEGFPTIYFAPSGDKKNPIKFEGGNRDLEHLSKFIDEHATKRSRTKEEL
As to the kind of experiment: insulin reduction turbidity assay, […] nm. In kind it is biochemical. The following applies: insulin substrate; 25 °C; 30 min.

As to PS1, the IC50 – broadly, the concentration that inhibits the measured activity by half – amounted to 4 µM.

(Values after article PMC10025235, “Pharmacological and mechanistic study of PS1, a Pdia4 inhibitor, in β-cell pathogenesis and diabetes in db/db mice” (Cellular and Molecular Life Sciences: CMLS, 2023).)
